Reference: publication PMC11302733, “Bioactivity of synthetic peptides from Ecuadorian frog skin secretions against Leishmania mexicana, Plasmodium falciparum, and Trypanosoma cruzi” (Microbiology Spectrum, 2024)
pIC50: −log10 of the molar value. Like-named read-outs stand apart in the source and are kept apart here. No end group written: not given here.

Columns and labels:
red blood cell = type: cell-based
Method: Hemolytic activity was determined using 200 µL of 4% red blood cell solution incubated with 200 µL of serial dilutions peptide (0.4–209.4 µM) in phosphate-buffered saline (PBS) 1× (five replicates). Negative controls contained PBS instead of peptide; positive controls contained 2% vol/vol Triton X-100 to yield complete hemolysis. Assays were incubated at 37°C for 2 h, and samples were centrifuged at […] for 5 min. Two-hundred microliters of supernatant was transferred to a 96-well plate and absorbance was measured at 550 nm.

[1] = tested on: T. cruzi trypomastigotes (Tulahuen, Tula β-gal); type: cell-based, Trypanosoma cruzi; settings: trypomastigotes (Tulahuen, Tula β-gal, 4 h)
Method: T. cruzi trypomastigote culture was performed as reported previously ([35], [36]). LLC-MK2 cell monolayers were infected with 5 × 10^5 trypomastigotes in 10-mL DMEM supplemented with 2% FBS and 1% penicillin/streptomycin (DMEM-2), for 48 h at 37°C, 5% CO2 and 98% relative humidity. Parasites were subsequently removed by rinsing with PBS, and 10-mL fresh DMEM-2 was added. Five days post-infection, trypomastigotes were harvested from the culture for the trypanocidal activity assays.
Wells containing parasites not exposed to peptides and treated with 0.1% Triton served as 100% lysis reference. Plates were incubated in the dark at 37°C and 5% CO2 for 4 h, and absorbance was read at 590 nm. Experiments were performed in duplicate wells. Three independent assays were performed for each peptide.

[2] = Cytotoxicity, resazurin reduction assay; type: cell-based, murine; settings: mouse
Method: (§1) RAW 264.7 murine macrophages and Macaca mulatta kidney cells (LLC-MK2) were cultured in 75-cm^2 flasks with 10-mL Dulbecco’s Modified Eagle’s Medium (DMEM) supplemented with 10% fetal bovine serum and 1% penicillin/streptomycin (DMEM-10) medium. Culture conditions were 37°C, 5% CO2, and 95% relative humidity. RAW 264.7 cells were rinsed with PBS, detached with a cell scraper, and passaged every 96 h. LL-MCK2 were subcultured weekly, at 1:4 ratio, via trypsinization.
(§2) The toxicity of the studied AMPs over LLC-MK2 and RAW 264 cells was determined via a resazurin (RZN) reduction assay ([42]). Briefly, 2 × 10^4 cells/well were seeded in DMEM-10 in 96-well plates. Twenty-four hours later, culture medium was removed, and 10 twofold serial dilutions (100.0–0.195 µM) of each AMP in 200-µL volume were placed in duplicate wells. The plate was placed on the incubator in the dark at 37°C and 5% CO2. Ten microliters of 3-mM RZN sodium salt in PBS per well was added, and the plate was incubated for 24 h. Finally, the fluorescence was measured (530- to 560-nm excitation and 590-nm emission wavelengths). Three independent assays were performed for each peptide.

[3] = tested on: intracellular T. cruzi amastigotes (Tula β-gal) in LLC-MK2 cells; settings: read-out: IC50 T. cruzi amastigotes, with 95% confidence interval, 96 h, CPRG read-out, three independent assays
Method: Leishmania mexicana strain M379, P. falciparum reference clones NF54 (chloroquine-sensitive, isolated from a patient at an airport in the Netherlands) and TM90C2B (C2B) (chloroquine, mefloquine, and atovaquone resistant, from Thailand) and T. cruzi, β-galactosidase-expressing, Tulahuen strain parasites (C4 clone; +lacZ, henceforth abbreviated as Tula β-gal) ([33]) were employed in the study.
LLC-MK2 cells, 2 × 10^4/well, were seeded and allowed to attach overnight to 96-well plates. he medium was removed and cells were infected with 1 × 10^5 parasites in DMEM-2 for 24 h. Cell monolayers were washed four times with PBS, and serial dilutions of AMPs (100.0- to 0.195-µM range) in DMEM-2 without phenol red were added to duplicate wells. Wells containing infected cells not exposed to peptides served as parasite growth reference. The infection was allowed to proceed for 96 h. Subsequently, lysis solution was added to each well to a final concentration of 100-µM CPRG and 0.1% Triton and incubated for 2 h. Absorbance was measured at 590 nm ([41]). Three independent assays were performed for each peptide.
Half-maximal inhibitory concentration (IC50) and half-maximal cytotoxic concentration (CC50) with 95% confidence intervals in GraphPad Prism software (v.9.2.0., non-linear regression with curve fitting [model: log (inhibitor) vs response (three parameters)]. The selectivity index (SI) was determined by dividing the CC50 value of RAW 264.7 cells by the IC50 of the parasites.

P. falciparum NF54 = type: cell-based, Plasmodium falciparum; settings: NF54, 72 h
Method: (§3) P. falciparum was cultured in human O + erythrocytes in Roswell Park Memorial Institute medium 1640, supplemented with 25-mM HEPES buffer, 10-mM glucose, 2-mM glutamine, and O + human plasma. Parasites were cultured under low-oxygen atmosphere (5% O2, 5% CO2, and 90% N2) ([34]) and maintained in fresh human erythrocytes suspended at 4% hematocrit in complete medium at 37°C. Stock cultures were subpassaged every 3–4 days by transfer of infected red cells to a flask containing complete medium and uninfected erythrocytes.
(§4) In vitro sensitivity to peptides was tested using a previously described SYBR green I fluorescence-based method ([39], [40]). Assays were set up in 96-well plates with twofold peptide dilutions in 150-μL total volume and 1.5% (vol/vol) final red blood cell concentration. Stock solutions of each peptide were prepared in DMSO. Experiments were started at an initial parasitemia of 0.5% (80% rings) synchronous parasite-infected red blood cells. Plates were incubated for 72 h at 37°C in an atmosphere of 5% CO2, 5% O2, and 90% N2. The SYBR green I dye-lysis mixture (l:100) was added to the parasites in black plates that were incubated at room temperature for an hour in the dark. The plates were then read using a fluorescence plate reader at excitation and emission wavelengths of 480 and 535 nm, respectively. Experiments were performed in duplicate wells. Three independent assays were performed for each peptide.

[4] = tested on: P. falciparum TM90C2B (C2B); type: cell-based, Plasmodium falciparum; settings: TM90C2B (C2B, 72 h)
Method: as §3, §4

[5] = Cytotoxicity, resazurin reduction assay; type: cell-based; settings: Macaca mulatta, LLC-MK2 cells (Macaca mulatta kidney cells), 100.0–0.195 µM, three independent assays in duplicate wells, read-out: IC50 (CC50) Llc-mk2, with 95% confidence interval
Method: as §1, §2

[6] = tested on: Leishmania mexicana strain M379 promastigotes; type: cell-based; settings: for SI L. mexicana: RAW 264.7 CC50/parasite IC50; for pIC50: promastigotes 1 × 10^6/well, SDM without FBS, 48 h at 25°C, MTT, three independent assays in triplicate, read-out: IC50 L. mexicana, with 95% confidence interval
Method: L. mexicana promastigote stock cultures were maintained in USHMARU biphasic medium [blood agar slant overlayed with 3 mL of Schneider’s Drosophila medium (SDM), containing 10% fetal bovine serum (FBS)] at 25°C. Promastigotes were collected by centrifugation and washed with PBS, and culture medium was replaced every 2 days. Every 4 days, the parasites were transferred to a new tube and to a 25-cm^2 tissue culture flask containing 10 mL of monophasic medium (SDM + 10% FBS + 1% penicillin/streptomycin). If present, rosettes were disrupted by passing the culture through 10-mL syringes with 27G needles.
Parasite viability was measured colorimetrically via 3-(4,5-dimethylthiazol-2-yl)-2,5-diphenyltetrazole bromide tetrazolium salt (MTT) reduction. Promastigotes were placed in 96-well conical-bottom plates in SDM + 1% penicillin/streptomycin without FBS, at a density of 1 × 10^6/well. Untreated parasites (growth control), 1-µM amphotericin B diluted in DMSO (positive control), 0.25% DMSO (negative control), and each of the peptides at a final concentration of 0.1, 0.5, 1.0, 5.0, and 10.0 µM were included in triplicate wells. Plates were incubated at 25°C for 48 h. Subsequently, 20-µL 10% MTT was added per well. Plates were incubated for 2 h in the dark at the same temperature and centrifuged at 4,000 rpm for 10 min, and the supernatant was removed. Formazan crystals were diluted with 50-µL DMSO, and absorbances (A570–630) were read ([37], [38]). Three independent assays were performed for each peptide.

[7] = tested on: Staphylococcus aureus ATCC 29213; type: cell-based; settings: ATCC 29213, 16 h
Method: (§5) The minimum inhibitory concentration (MIC) of CZS-4 over Escherichia coli American Type Culture Collection (ATCC) 25922, Staphylococcus aureus ATCC 29213, and Candida albicans ATCC 10231 was determined, as previously described ([28], [30], [31]). In brief, overnight cultures of each microorganism were subcultured in Muller-Hinton Broth (MHB) until reaching 1 × 10^6 CFU/mL for bacteria and 1 × 10^5 CFU/mL for yeast. Peptide serial dilutions in dimethylsulfoxide (DMSO), ranging from 0.4 to 209.4 µM were prepared, and 2 µL of each peptide dilution was added to 198-µL diluted bacterial or yeast culture in a 96-well sterile plate (with five replicates). Sterile MHB and microbial culture with DMSO were negative controls. Plates were incubated for 16 h at 37°C. Microorganism growth was measured at 600 nm.

[8] = tested on: Escherichia coli ATCC 25922; type: cell-based; settings: ATCC 25922, 16 h
Method: as §5

[9] = tested on: Candida albicans ATCC 10231; type: cell-based; settings: ATCC 10231, 16 h
Method: as §5

[10] = RAW 264.7 macrophages, resazurin reduction, 24 h, 100.0–0.195 µM, three independent assays in duplicate wells, read-out: IC50 (CC50) Raw 264.7, with 95% confidence interval

Substance | Hemolysis (red blood cell; 128 µM) [%] | Hemolysis (red blood cell; 2 h) | Hemolysis (%) (red blood cell; 2 h, 13.09 µM) | Hemolysis (%) (red blood cell; 2 h, 26.18 µM) | Hemolysis (%) (red blood cell; 2 h, 104.73 µM) | Hemolysis (%) (red blood cell; 2 h, 209.46 µM) | pIC50 [1] | CC50 at 24 h [2, 10] [µM] | pIC50 [3] | pIC50 (P. falciparum NF54) | pIC50 [4] | CC50 at 24 h [5] [µM] | SI L. mexicana [6] | pIC50 [6] | MIC [7] [µM] | MIC [8] [µM] | MIC [9] [µM] | CC50 at 24 h [2] [µM]
GFLDVIKHVGKAALSVVSHLINE-NH2 [CZS-4] | 13 | less than 9.1% | 1.2 | 9.1 | 28.5 | 36.3 | 5.81 | 48 | 4.51 | 4.86 | 5.31 | 70.7 | 532.89 | 7.05 | 26.18 | 13.09 | 52.36 | –
GFLDVLKGVGKAALGAVTHLINQ-NH2 [CZS-16] | – | – | – | – | – | – | 4.73 | 4.4 | 4.42 | 4.43 | 4.46 | 5.59 | – | – | – | – | – | –
ASWKVFLKNIGKAAGKAVLNSVTDMVNQ-NH2 [DRS-SP2] | – | – | – | – | – | – | – | – | – | 4.92 | 4.81 | – | 5.15 | 6.21 | – | – | – | 3.14
GFLDTLKNIGKTVGRIALNVLT-NH2 [PTS-1] | – | – | – | – | – | – | 5.85 | 2.52 | 4.52 | 4.28 | 4.60 | 80.1 | 25.20 | 7.00 | – | – | – | –
GFLDIVKGVGKVALGAVSKLF-NH2 [CZS-1] | – | – | – | – | – | – | 5.54 | 2.38 | 4.78 | 4.51 | 4.78 | 3.17 | 4.41 | 6.27 | – | – | – | –
